Experimental data: PubChem BioAssay AID288 (DTP/NCI, 2004)
Several values for one entry are separate records, joined by “and”; a condition that tells them apart may be missing. Identical values can stand only once. Inconclusive results are not listed.

System: BDF1 mice, M5076 sarcoma s.c., survival/tumor T/C
Experiment: NCI In Vivo Anticancer Drug Screen. Data for tumor model Sarcoma M5076 (subcutaneous) in B6D2F1 (BDF1) mice
Description: The antitumor activity of compounds was measured in mice bearing transplantable tumors. Survival or tumor size were measured and the results are expressed as the measurement made in the treated group (T) divided by the measurement made in the vehicle treated control group (C). The tumor model used in this assay is Sarcoma M5076 (subcutaneous) in B6D2F1 (BDF1) mice

Compound: Cc1c2ccncc2c(C)c2c1[nH]c1ccccc12
- T/C (endpoint: mean tumor weight, dose: 12.5 mg/kg/injection, schedule: Q02DX011 (ip), vehicle: saline, higher = larger tumour): 100 % of control
- T/C (endpoint: mean tumor weight, dose: 12.5 mg/kg/injection, schedule: Q02DX011 (ip), vehicle: water, higher = larger tumour): 55 % of control
- T/C (endpoint: mean tumor weight, dose: 25.0 mg/kg/injection, schedule: Q02DX011 (ip), vehicle: saline, higher = larger tumour): 65 % of control
- T/C (endpoint: mean tumor weight, dose: 50.0 mg/kg/injection, schedule: Q02DX011 (ip), vehicle: saline, higher = larger tumour): 36 % of control
- T/C (endpoint: median tumor weight (est.), dose: 12.5 mg/kg/injection, schedule: Q02DX011 (ip), vehicle: saline, higher = larger tumour): 355 % of control
- T/C (endpoint: median tumor weight (est.), dose: 12.5 mg/kg/injection, schedule: Q02DX011 (ip), vehicle: water, higher = larger tumour): 47 % of control
- T/C (endpoint: median tumor weight (est.), dose: 25.0 mg/kg/injection, schedule: Q02DX011 (ip), vehicle: saline, higher = larger tumour): 314 % of control
- T/C (endpoint: median tumor weight (est.), dose: 50.0 mg/kg/injection, schedule: Q02DX011 (ip), vehicle: saline, higher = larger tumour): 98 % of control

Compound: CN(C)c1nc(N(C)C)nc(N(C)C)n1
- T/C (endpoint: median survival time, dose: 44.0 mg/kg/injection, schedule: Q04DX006 (ip), vehicle: saline with Tween-80, higher = longer survival): 97 % of control
- T/C (endpoint: median survival time, dose: 88.0 mg/kg/injection, schedule: Q04DX006 (ip), vehicle: saline with Tween-80, higher = longer survival): 108 % of control
- T/C (endpoint: median survival time, dose: 176.0 mg/kg/injection, schedule: Q02DX033 (ip), vehicle: saline with Tween-80, higher = longer survival): 189 % of control
- T/C (endpoint: median survival time, dose: 176.0 mg/kg/injection, schedule: Q04DX006 (ip), vehicle: saline with Tween-80, higher = longer survival): 120 % of control
- T/C (endpoint: median survival time, dose: 352.0 mg/kg/injection, schedule: Q04DX006 (ip), vehicle: saline with Tween-80, higher = longer survival): 112 % of control
- T/C (endpoint: median tumor weight (est.), dose: 30.0 mg/kg/injection, schedule: Q02DX011 (ip), vehicle: saline with Tween-80, higher = larger tumour): 110 % of control
- T/C (endpoint: median tumor weight (est.), dose: 60.0 mg/kg/injection, schedule: Q02DX011 (ip), vehicle: saline with Tween-80, higher = larger tumour): 54 % of control
- T/C (endpoint: median tumor weight (est.), dose: 120.0 mg/kg/injection, schedule: Q02DX011 (ip), vehicle: saline with Tween-80, higher = larger tumour): 17 % of control

Compound: CN(C)CCCNc1c2ccccc2nc2cccc([N+](=O)[O-])c12
- T/C (endpoint: mean tumor weight, dose: 2.0 micrograms/kg/injection, schedule: Q02DX011 (ip), vehicle: saline, higher = larger tumour): 106 % of control
- T/C (endpoint: mean tumor weight, dose: 4.0 micrograms/kg/injection, schedule: Q02DX011 (ip), vehicle: saline, higher = larger tumour): 70 % of control
- T/C (endpoint: mean tumor weight, dose: 8.0 micrograms/kg/injection, schedule: Q02DX011 (ip), vehicle: saline, higher = larger tumour): 97 % of control
- T/C (endpoint: mean tumor weight, dose: 16.0 micrograms/kg/injection, schedule: Q02DX011 (ip), vehicle: saline, higher = larger tumour): 92 % of control
- T/C (endpoint: mean tumor weight, dose: 32.0 micrograms/kg/injection, schedule: Q02DX011 (ip), vehicle: saline, higher = larger tumour): 88 % of control
- T/C (endpoint: mean tumor weight, dose: 64.0 micrograms/kg/injection, schedule: Q02DX011 (ip), vehicle: saline, higher = larger tumour): 65 % of control
- T/C (endpoint: median tumor weight (est.), dose: 2.0 micrograms/kg/injection, schedule: Q02DX011 (ip), vehicle: saline, higher = larger tumour): 112 % of control
- T/C (endpoint: median tumor weight (est.), dose: 4.0 micrograms/kg/injection, schedule: Q02DX011 (ip), vehicle: saline, higher = larger tumour): 90 % of control
- T/C (endpoint: median tumor weight (est.), dose: 8.0 micrograms/kg/injection, schedule: Q02DX011 (ip), vehicle: saline, higher = larger tumour): 95 % of control
- T/C (endpoint: median tumor weight (est.), dose: 32.0 micrograms/kg/injection, schedule: Q02DX011 (ip), vehicle: saline, higher = larger tumour): 100 % of control
- T/C (endpoint: median tumor weight (est.), dose: 64.0 micrograms/kg/injection, schedule: Q02DX011 (ip), vehicle: saline, higher = larger tumour): 62 % of control

Compound: O=P1(N(CCCl)CCCl)NCCCO1 (stereo not given)
- T/C (endpoint: median survival time, dose: 6.25 mg/kg/injection, schedule: Q04DX006 (ip), vehicle: saline, higher = longer survival): 100 % of control
- T/C (endpoint: median survival time, dose: 12.5 mg/kg/injection, schedule: Q02DX033 (ip), vehicle: saline, higher = longer survival): 121 % of control
- T/C (endpoint: median survival time, dose: 12.5 mg/kg/injection, schedule: Q04DX006 (ip), vehicle: saline, higher = longer survival): 108 % of control
- T/C (endpoint: median survival time, dose: 25.0 mg/kg/injection, schedule: Q02DX033 (ip), vehicle: saline, higher = longer survival): 214 % of control
- T/C (endpoint: median survival time, dose: 25.0 mg/kg/injection, schedule: Q04DX006 (ip), vehicle: saline, higher = longer survival): 124 % of control
- T/C (endpoint: median survival time, dose: 50.0 mg/kg/injection, schedule: Q04DX006 (ip), vehicle: saline, higher = longer survival): 121 % of control
- T/C (endpoint: median survival time, dose: 64.8 mg/kg/injection, schedule: Q01DX001 (ip), vehicle: saline, higher = longer survival): 101 % of control
- T/C (endpoint: median survival time, dose: 210.0 mg/kg/injection, schedule: Q01DX001 (ip), vehicle: saline, higher = longer survival): 155 % of control and 157 % of control

Compound: C[c-]1[c-][c-][c-][c-]1.C[c-]1[c-][c-][c-][c-]1.[C-]#[O+].[C-]#[O+].[C-]#[O+].[C-]#[O+].[C-]#[O+].[C-]#[O+].[Mo].[Mo]
- T/C (endpoint: median survival time, dose: 100.0 mg/kg/injection, schedule: Q01DX009 (ip), vehicle: saline with Tween-80, higher = longer survival): 111 % of control
- T/C (endpoint: median survival time, dose: 200.0 mg/kg/injection, schedule: Q01DX009 (ip), vehicle: saline with Tween-80, higher = longer survival): 94 % of control

Compound: NCCCNCCSP(=O)(O)O
- T/C (endpoint: median survival time, dose: 25.0 mg/kg/injection, schedule: Q02DX011 (ip), vehicle: saline, higher = longer survival): 116 % of control
- T/C (endpoint: median survival time, dose: 50.0 mg/kg/injection, schedule: Q02DX011 (ip), vehicle: saline, higher = longer survival): 106 % of control
- T/C (endpoint: median survival time, dose: 100.0 mg/kg/injection, schedule: Q02DX011 (ip), vehicle: saline, higher = longer survival): 96 % of control
